The source made the active and inactive calls. The rule behind the calls is not given here.
Legend:
KB = experiment: Antiproliferative activity against human KB cells assessed as cell growth inhibition incubated for 72 hrs by sulforhodamine B assay; format: functional, cell-based
MDA-MB-231 [1] = experiment: Induction of cell cycle arrest in human MDA-MB-231 cells assessed as accumulation of cells at sub-G1 phase at 8 x IC50 incubated for 24 hrs by propidium iodide staining based flow cytometry; format: functional
[2] = Antiproliferative activity against human KB-VIN cells assessed as cell growth inhibition incubated for 72 hrs by sulforhodamine B assay; format: functional, cell-based; conditions: KBVIN
MDA-MB-231 [3] = experiment: Induction of cell cycle arrest in human MDA-MB-231 cells assessed as accumulation of cells at G2/M phase at IC50 incubated for 24 hrs by propidium iodide staining based flow cytometry; format: functional
MDA-MB-231 [4] = experiment: Induction of nuclear fragmentation in human MDA-MB-231 cells at 8 x IC50 incubated for 24 hrs by propidium iodide staining based flow cytometry; format: functional, cell-based
MCF7 = experiment: Antiproliferative activity against human MCF7 cells assessed as cell growth inhibition incubated for 72 hrs by sulforhodamine B assay; format: functional, cell-based; conditions: MCF7, 72 h
A549 = experiment: Antiproliferative activity against human A549 cells assessed as cell growth inhibition incubated for 72 hrs by sulforhodamine B assay; format: functional, cell-based; conditions: A549, 72 h
MDA-MB-231 [5] = experiment: Antiproliferative activity against human MDA-MB-231 cells assessed as cell growth inhibition incubated for 72 hrs by sulforhodamine B assay; format: functional, cell-based; conditions: MDA-MB-231, 72 h
MDA-MB-231 [6] = experiment: Induction of cell cycle arrest in human MDA-MB-231 cells assessed as accumulation of cells at G2/M phase at IC50 x 8 incubated for 24 hrs by propidium iodide staining based flow cytometry; format: functional

SMILES | IC50 (KB) [µM] | Activity (MDA-MB-231 [1]) | IC50 [2] [µM] | Activity (MDA-MB-231 [3]) | Activity (MDA-MB-231 [4]) | IC50 (MCF7) [µM] | IC50 (A549) [µM] | IC50 (MDA-MB-231 [5]) [µM] | Activity (MDA-MB-231 [6])
C[C@H]1C(=O)C=C(Br)C2=CC(=O)CC[C@@]21C | 18 | Active | 19 | Active | Active | 17 | 25 | 6.4 | 
CC(=O)O[C@H]1C(=O)[C@@]2(C)[C@H]([C@H](OC(=O)c3ccccc3)[C@]3(O)C[C@H](OC(=O)[C@H](O)[C@@H](NC(=O)c4ccccc4)c4ccccc4)C(C)=C1C3(C)C)[C@]1(OC(C)=O)CO[C@@H]1C[C@@H]2O [PACLITAXEL] |  |  | 2.4 |  |  | 0.011 | 0.0054 |  | 
C[C@H]1[C@H](O)C=CC2=CC(=O)CC[C@@]21C | 32 |  | > 40 |  |  | > 40 | > 40 | > 40 | 
C[C@H]1[C@H](O)C=C(Br)C2=CC(=O)CC[C@@]21C | 29 |  | 37 |  |  | 36 | 35 | 32 | 
CC(=O)C1=C(O)C=C2C=CC(=O)[C@H](C)[C@@]2(C)C1 | 9.5 |  | 26 |  |  | 16 | 29 | 31 | 
CC(=O)C1=C(O)C=C2C(Br)=CC(=O)[C@H](C)[C@@]2(C)C1 | 5 |  | 8 | Active |  | 6.9 | 7.9 | 5.3 | 
C[C@H]1C(=O)C=CC2=CC(=O)CC[C@@]21C | > 40 |  | > 40 |  |  | > 40 | > 40 | > 40 | 
CC(=O)C1=C(O)C=C2C(Br)=C[C@H](O)[C@H](C)[C@@]2(C)C1 | 15 |  | 18 | Active |  | 13 | 19 | 5.2 | Active
CC(=O)C1=C(O)C=C2C=C[C@H](O)[C@H](C)[C@@]2(C)C1 | > 40 |  | > 40 |  |  | > 40 | > 40 | > 40 | 

Reference: ChEMBL document CHEMBL5335831, “Total Synthesis of a TNBC-Selective Cytotoxic Bromo Nor-eremophilane, PC-A, and Its Preliminary Structure-Activity Relationships” (J Nat Prod, 2024)
